In patent US8173700B2, “Salts of substituted allophanates and their use in drugs” (Gruenenthal GmbH, priority 2005, dated 2012):

Assays:
hVR1 = target: T1, hVR1 (Homo sapiens, UniProt Q8NER1); test: Functional investigation at the vanilloid receptor (VR1), FLIPR Ca2+ influx assay, Method II, hVR1; assay type: cell-based; conditions: for IC50: suppression of capsaicin-induced Ca2+ influx; for inhibition at 10 µM: test substance 10 μM, CHO K1 cells transfected with VR1, inhibition of Ca2+ influx after 100 nM capsaicin, compared to maximum inhibition with 10 μM capsazepin
T1 construct: expressed in transfected cells; host or cells: CHO K1 cells (ECACC)
From the text: (§1) The agonistic and/or antagonistic effects of the test substances on the vanilloid receptor (VR1) can be determined with the following assay. According to this assay the Ca^2+ influx through the channel is quantified by means of a Ca^2+-sensitive dye (Type Fluo-4, Molecular Probes, Europe BV, Leyden, The Netherlands) in the Fluorescent Imaging Plate Reader (FLIPR, Molecular Devices, Sunnyvale, USA).
(§2) Chinese hamster ovary cells (CHO K1-cells, European Collection of Cell Cultures (ECACC) Great Britain) are stably transfected with the VR1 gene. For functional studies, these cells are plated on poly-D-lysine-coated, black 96-well plates with clear bottom (BD Biosciences, Heidelberg, Germany) at a density of 25 000 cells/well. The cells are incubated overnight at 37° C. and 5% CO2 in a culture medium (Nutrient Mixture Ham's F12, 10 vol. % FCS (fetal calf serum), 18 μg/ml L-proline). On the next day the cells are incubated for 30 minutes at 37° C. with Fluo-4 (Fluo-4 2 μM, Pluronic F127 0.01 vol. %, Molecular Probes) in HBSS (Hank's buffered saline solution), (Gibco Invitrogen GmbH, Karlsruhe, Germany). Then the plates are washed 3 times with HBSS buffer and, after further incubation of 15 minutes at room temperature, they are used for Ca^2+ measurement in the FLIPR. The Ca^2+-dependent fluorescence is measured before and after adding the test substances (wavelength λex=^488 nm, λem=540 nm). Quantification is based on measurement of the maximum fluorescence intensity (FC, fluorescence counts) over time.
(§3) The FLIPR protocol comprises 2 additions of the substance. First the test substances (10 μM) are pipetted onto the cells and the Ca^2+ influx is compared with the control (capsaicin 10 μM) (% activation relative to the Ca^2+ signal after adding 10 μM capsaicin). After incubation for 5 minutes, 100 nM capsaicin is applied and the influx of Ca^2+ is determined again.
(§4) Desensitizing agonists and antagonists led to suppression of Ca^2+ influx. The % inhibition is calculated compared to the maximum inhibition attainable with 10 μM capsazepin.

rVR1 = target: T2, rVR1 (Rattus norvegicus, UniProt O35433); test: Functional investigation at the vanilloid receptor (VR1), FLIPR Ca2+ influx assay, Method II, rVR1; assay type: cell-based; conditions: for IC50: suppression of capsaicin-induced Ca2+ influx; for rVR1 10 μM Stimulation / inhibition at 10 µM: test substance 10 μM; for rVR1 10 μM Stimulation: % activation relative to the Ca2+ signal after adding 10 μM capsaicin; for inhibition at 10 µM: inhibition of Ca2+ influx after 100 nM capsaicin, compared to maximum inhibition with 10 μM capsazepin
T2 construct: expressed in transfected cells; host or cells: CHO K1 cells (ECACC)
From the text: as §1, §2, §3, §4

T2 sequence (O35433 whole entry): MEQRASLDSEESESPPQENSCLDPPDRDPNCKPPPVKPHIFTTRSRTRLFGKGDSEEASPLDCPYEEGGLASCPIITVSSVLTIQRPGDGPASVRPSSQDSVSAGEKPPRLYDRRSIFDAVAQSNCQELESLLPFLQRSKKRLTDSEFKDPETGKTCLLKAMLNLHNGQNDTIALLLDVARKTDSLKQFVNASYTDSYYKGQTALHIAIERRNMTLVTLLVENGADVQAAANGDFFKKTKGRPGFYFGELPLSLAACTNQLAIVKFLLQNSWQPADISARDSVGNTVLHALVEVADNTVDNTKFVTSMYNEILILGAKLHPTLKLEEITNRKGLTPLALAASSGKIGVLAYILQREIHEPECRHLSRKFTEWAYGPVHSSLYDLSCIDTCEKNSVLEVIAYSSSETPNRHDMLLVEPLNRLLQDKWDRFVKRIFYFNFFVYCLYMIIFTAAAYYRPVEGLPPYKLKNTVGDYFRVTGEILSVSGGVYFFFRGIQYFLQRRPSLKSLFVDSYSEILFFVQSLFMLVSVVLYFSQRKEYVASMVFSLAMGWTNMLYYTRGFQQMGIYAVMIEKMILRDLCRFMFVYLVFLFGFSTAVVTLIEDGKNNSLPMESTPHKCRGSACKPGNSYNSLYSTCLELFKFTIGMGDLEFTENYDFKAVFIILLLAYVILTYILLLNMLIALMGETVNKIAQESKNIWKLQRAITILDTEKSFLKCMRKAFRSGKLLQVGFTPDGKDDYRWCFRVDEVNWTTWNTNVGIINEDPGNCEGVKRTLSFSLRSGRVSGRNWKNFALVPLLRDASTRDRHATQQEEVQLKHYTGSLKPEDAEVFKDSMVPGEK
T1 sequence (Q8NER1 whole entry): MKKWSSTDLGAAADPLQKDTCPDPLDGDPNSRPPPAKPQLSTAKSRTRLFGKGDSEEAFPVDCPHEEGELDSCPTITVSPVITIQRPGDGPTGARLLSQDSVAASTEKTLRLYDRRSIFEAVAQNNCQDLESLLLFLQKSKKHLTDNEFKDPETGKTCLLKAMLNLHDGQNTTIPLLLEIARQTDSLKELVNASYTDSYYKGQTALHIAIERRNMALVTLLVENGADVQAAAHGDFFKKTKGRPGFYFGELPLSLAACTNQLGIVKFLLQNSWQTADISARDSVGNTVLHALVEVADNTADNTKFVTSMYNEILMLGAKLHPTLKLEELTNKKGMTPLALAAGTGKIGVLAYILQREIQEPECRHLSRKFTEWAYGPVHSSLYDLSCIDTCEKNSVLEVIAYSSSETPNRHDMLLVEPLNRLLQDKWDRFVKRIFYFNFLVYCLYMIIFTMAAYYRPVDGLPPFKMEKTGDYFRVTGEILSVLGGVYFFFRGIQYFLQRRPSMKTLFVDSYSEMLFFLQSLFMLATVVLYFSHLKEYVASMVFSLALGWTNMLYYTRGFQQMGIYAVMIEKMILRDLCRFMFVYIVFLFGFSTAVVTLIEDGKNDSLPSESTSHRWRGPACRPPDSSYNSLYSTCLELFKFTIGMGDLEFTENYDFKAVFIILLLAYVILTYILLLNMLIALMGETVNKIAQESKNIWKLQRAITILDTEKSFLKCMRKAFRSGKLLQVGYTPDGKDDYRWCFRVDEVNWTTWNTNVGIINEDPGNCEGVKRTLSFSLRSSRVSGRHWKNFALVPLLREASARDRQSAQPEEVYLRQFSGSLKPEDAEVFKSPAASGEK

| SMILES | IC50 (hVR1) | inhibition at 10 µM (hVR1) | IC50 (rVR1) | rVR1 10 μM Stimulation (rVR1) | inhibition at 10 µM (rVR1) |
| --- | --- | --- | --- | --- | --- |
| CCCCCCCCCCCCCCCCOCC(COC(=O)NC(=O)NCC[N+](C)(C)C)OC (centres unmarked) [compound 14, 4-(Trimethylamino-1-ethyl)allophanic acid 3-hexadecyloxy-2-methoxypropan-1-yl ester iodide] | 2.4 µM | 93.1% | 1.15 µM | 0.09% | 95.5% |
| CCCCCCCCCCCCCCCCOC[C@@H]1CC[C@H](COC(=O)NC(=O)NCC[N+](C)(C)C)O1 (relative stereo) [compound 13, 4-(Trimethylamino-1-ethyl)allophanic acid (cis-5-hexadecyloxymethyltetrahydrofuran-2-yl)methyl ester iodide] | 1.1 µM | 80.8% | 1.3 µM | 0.36% | 92.1% |
| CCCCCCCCCCCCCCCCOC(=O)NC(=O)NCC[N+]1(C)CCCC1 [compound 2, 4-(Pyrrolidinium-1-ethyl)allophanic acid hexadecyl ester iodide] | 0.92 µM | 88.9% | 1.23 µM | −0.02% | 87.1% |
| CCCCCCCCCCCCCCCCOCC1(COC(=O)NC(=O)NCC[N+](C)(C)C)CCCO1 (centres unmarked) [compound 16, 4-(Trimethylamino-1-ethyl)allophanic acid (2-hexadecyloxymethyltetrahydrofuran-2-yl)methyl ester iodide] | 1.7 µM | 68.6% | 2.9 µM | 0.58% | 99.3% |
| CCCCCCCCCCCCCCCCOC(=O)NC(=O)NCCC[N+](C)(C)C [compound 3, 4-(Trimethylamino-1-propyl)allophanic acid hexadecyl ester iodide] | 4.27 µM | 56.9% | 1.27 µM | −0.73% | 94.4% |
| CCCCCCCCCCCCOC(=O)NC(=O)NCC[N+](C)(C)C [compound 1, 4-(Trimethylamino-1-ethyl)allophanic acid dodecyl ester iodide] | 2.43 µM | 95.4% | 2.1 µM | 0.55% | 103% |
| CCCCCCCCCCCCCCCCOC(=O)NC(=O)NCC[N+](C)(C)C [compound 15, 4-(Trimethylamino-1-ethyl)allophanic acid hexadecyl ester iodide] | 3.45 µM | 101% | 2.95 µM | −1.01% | 109% |
